Source: patent publication US9422557B2, “Methods and compositions for weed control” (Monsanto Technology LLC, priority 2011, dated 2016)

Experiments:
[1] = test system: Glyphosate-sensitive Palmer amaranth (A. palmeri R-22) plants; test: Topical treatment of Palmer amaranth with pooled ssDNA ACCase oligonucleotides followed by clethodim; plant height; assay type: in vivo, Amaranthus palmeri; conditions: clethodim (SelectMax) 272 g ai/ha with 1% COC; ssDNA pool at 16 nmol applied 24 and 48 hours before herbicide where used; height followed up to twelve days after herbicide; four replications; FIG. 1
Experimental: (§1) Glyphosate-sensitive Palmer amaranth (A. palmeri R-22) plants where grown in the greenhouse (30/20 C day/night T; 14 hour photoperiod) in 4 inch square pots containing Sun Gro® Redi-Earth and 3.5 kg/cubic meter Osmocote® 14-14-14 fertilizer. Palmer amaranth plants at 5 to 10 cm in height were treated with a pool of eight 8 short (21-22mer) single-strand antisense oligo DNA polynucleotides (ssDNA) targeting ACCase shown in Table 2 at 16 nmol, formulated in 10 millimolar sodium phosphate buffer (pH 6.8) containing 2% ammonium sulfate and 0.5% Silwet L-77. Plants were treated manually by pipetting 10 μL of polynucleotide solution on four fully expanded mature leaves, for a total of 40 microliters of solution per plant. Twenty-four and forty-eight hours later, the plants were treated with clethodim (SelectMax®, 0.97 lb ai per gallon; ACCase inhibitor) at 272 g ai/ha, crop oil concentrate (COC) at 1% was added to the herbicide treatments. Four replications of each treatment were conducted. Plant height was determined just before ssDNA treatment and at intervals upto twelve days after herbicide treatments to determine effect of the oligonucleotide and herbicide treatments.

[2] = test system: Glyphosate-sensitive Palmer amaranth (A. palmeri R-22) plants; test: Follow-up test of individual ACCase oligonucleotides with herbicide 24 hours later; growth effects; assay type: in vivo, Amaranthus palmeri; conditions: 4 nmol oligonucleotide per plant, four plants; herbicide applied 24 hours after the oligonucleotide treatment
Experimental: as §1
An additional test was conducted to determine which of the ACCase oligonucleotides was responsible for the result. […]

Row | Molecule | reduction in plant height relative to the untreated control [1] [%] | reduction of plant growth relative to untreated plants (average) [2] [%]
1 | CCSC(C)CC1CC(=O)C(C(CC)=NOC/C=C/Cl)=C(O)C1 (centres unmarked) [clethodim, 2-[1-[[[(2E)-3-chloro-2-propen-1-yl]oxy]imino]propyl]-5-[2-(ethylthio)propyl]-3-hydroxy-2-cyclohexen-1-one] | 0 | 
2 | oligo6: single-strand antisense DNA oligo targeting ACCase, GCACCACGAGGATCACAAGAA (DNA, backbone and methylation of C not given here; listed as Amaranthus palmeri) |  | 40
